In patent US5449752A, “Polypeptides with affinity to lipopolysaccharides and their uses” (Seikagaku Kogyo K.K., priority 1991, dated 1995):
≈ marks a conversion by molar mass, not a printed value. Positions of bridges follow the written chain, without caps; N, C: chain ends. Residues, ends and D or L forms follow the SMILES beside them. No end group written: not given here.

Experiments:
MT-4 cells = test: Cytotoxicity on virus-noninfected MT-4 cells (MTT method); format: cell-based; details: 37° C., 5 days
Method: (§1) HIV-infected MT-4 cells (2.5×10^4 cells/well, multiplicity of infection (MOI): 0.001) immediately after infection were added together with the test substance with various changes of the concentration to a 96-well microtitre plate. After incubation at 37° C. for 5 days in a CO2 incubator, the number of survivor cells was measured by the MTT method [Pauwels et al.; J. Virol. Methods, 20, 309-321 (1988)]. The antiviral activity is expressed as a concentration at which cell death due to HIV infection is 50% inhibited (EC50 : 50% effective concentration). On the other hand, in order to know the cytotoxicity of the test substance on the MT-4 cells, virus-noninfected cells are incubated, likewise as above, together with the test compound with various changes of the concentration. The cytotoxicity is expressed as 50% cytotoxic concentration […] due to the test substance. Further, the rough ratio of CC50 to EC50 (CC50 /EC50) is expressed as an effective ratio (SI=selectivity index).

HIV = test: Antiviral activity against HIV in HIV-infected MT-4 cells (MTT method); format: cell-based, human immunodeficiency virus; details: for EC50 (concentration at which cell death due to HIV infection is 50% inhibited): HIV-infected MT-4 cells, MOI 0.001, 37° C., 5 days, MTT method; for SI (CC50 /EC50): rough ratio of CC50 to EC50, MT-4 cells
Method: The antiviral activity-against HIV of the polypeptide (1) synthesized in Example 1 as well as polypeptides (2), (3), (4), (7), (12), (13), (14), (20), (21) and (26) was tested and evaluated according to the following method.
as §1

Compound | CC50 (50% cytotoxic concentration) (MT-4 cells) | EC50 (concentration at which cell death due to HIV infection is 50% inhibited) (HIV) | SI (CC50 /EC50) (HIV)
CC(C)[C@@H]1NC(=O)[C@H](CCCNC(=N)N)NC(=O)[C@H](Cc2ccccc2)NC(=O)[C@@H](NC(=O)[C@H](Cc2c[nH]c3ccccc23)NC(=O)[C@H](CCCNC(=N)N)NC(=O)[C@@H](N)CCCNC(=N)N)CSSC[C@@H](C(=O)N[C@@H](CCCNC(=N)N)C(N)=O)NC(=O)[C@H](CCCCN)NC(=O)[C@H](CCCNC(=N)N)NC(=O)[C@H](Cc2ccc(O)cc2)NC(=O)[C@@H]2CSSC[C@H](NC1=O)C(=O)N[C@@H](Cc1ccc(O)cc1)C(=O)N[C@@H](CCCCN)C(=O)NCC(=O)N[C@@H](Cc1ccccc1)C(=O)N2 [Polyphemusin II, ArgArgTrpCysPheArgValCysTyrLysGlyPheCysTyrArgLysCysArg NH2, reference compound] (H-RRWCFRVCYKGFCYRKCR-NH2; disulfide 4-17, 8-13) | 33 µg/mL (≈ 13.6 µM) | 1.9 µg/mL (≈ 0.783 µM) | 17
CC[C@H](C)[C@@H]1NC(=O)CNC(=O)[C@H](CCCNC(=N)N)NC(=O)[C@H](Cc2ccc(O)cc2)NC(=O)[C@@H]2CSSC[C@H](NC1=O)C(=O)N[C@@H](Cc1ccc(O)cc1)C(=O)N[C@@H](CCCNC(=N)N)C(=O)N[C@@H](CCCCN)C(=O)N[C@H](C(=O)N[C@@H](CCCNC(=N)N)C(N)=O)CSSC[C@H](NC(=O)[C@H](Cc1c[nH]c3ccccc13)NC(=O)[C@@H](N)CCCNC(=N)N)C(=O)N[C@@H](Cc1ccccc1)C(=O)N[C@@H](CCCNC(=N)N)C(=O)N[C@@H](C(C)C)C(=O)N2 [Tachyplesin II, ArgTrpCysPheArgValCysTyrArgGlyIleCysTyrArgLysCysArg NH2, reference compound] (H-RWCFRVCYRGICYRKCR-NH2; disulfide 3-16, 7-12) | 36 µg/mL (≈ 15.9 µM) |  | 6
ArgArgTyrCysTyrArgLysCysTyrLysGlyTyrCysTrpArgLysCysArgNH2 (RRYCYRKCYKGYCWRKCR-NH2; cysteine pairing not given here) [polypeptide (7)] | 100 µg/mL | 0.36 µg/mL | 278
N=C(N)NCCC[C@H](NC(=O)[C@H](CCCNC(=N)N)NC(=O)[C@@H]1CSSC[C@H](NC(=O)[C@H](Cc2c[nH]c3ccccc23)NC(=O)[C@H](CCCNC(=N)N)NC(=O)[C@@H](N)CCCNC(=N)N)C(=O)N[C@@H](Cc2ccc(O)cc2)C(=O)N[C@@H](CCCNC(=N)N)C(=O)N[C@@H](CCCCN)C(=O)N[C@H]2CSSC[C@H](NC(=O)[C@H](Cc3ccc(O)cc3)NC(=O)CNC(=O)[C@H](CCCCN)NC(=O)[C@H](Cc3ccc(O)cc3)NC2=O)C(=O)N[C@@H](Cc2ccc(O)cc2)C(=O)N[C@@H](CCCNC(=N)N)C(=O)N[C@@H](CCCCN)C(=O)N1)C(N)=O [polypeptide (2), ArgArgTrpCysTyrArgLysCysTyrLysGlyTyrCysTyrArgLysCysArgArgNH2] (H-RRWCYRKCYKGYCYRKCRR-NH2; disulfide 4-17, 8-13; N-terminus assumed) | 200 µg/mL (≈ 75.7 µM) | 1.26 µg/mL (≈ 0.477 µM) | 
